According to patent US20160243022A1, “Use of Fermented Milk Product for Skin Treatment” (GIVAUDAN S.A., priority 2006, published 2016):

System: normal human dermal fibroblasts (NHDF)
Assay: [3H] proline incorporation into intracellular and ECM layer proteins (collagen synthesis)
Format: cell-based
Conditions: 20 micro g/ml
Description: Normal human dermal fibroblasts (NHDF) were cultured in-vitro with radio labelled [^3H] proline. Collagen is a proline-rich protein. The level of radio labelled proline found in proteins, following culturing of the NHDF, is a measure of the rate of collagen synthesis. Yogurtene™ can be added to the cell culture to measure the effect of Yogurtene™ on the rate of proline uptake (collagen synthesis).
The study investigated the increase in radio labelled proline found in: (i) soluble/secreted proteins, and (ii) intracellular and extra-cellular matrix (ECM) proteins.
Beta-Transforming Growth Factor (β-TGF) and ascorbic acid are known collagen synthesis promoters and were used as controls in both studies.

O=C1O[C@H]([C@@H](O)CO)C(O)=C1O [Ascorbic acid]
Proline incorporation into intracellular & ECM layer proteins: 12764 Count/min
